Test results as given in US6337306B1, “Phenoxyacetic acid derivatives and their use as herbicides” (Rhone-Poulenc Agro, priority 1997, dated 2002).

Assays:
Scirpus juncoides = test: Test Method 1: soil application in paddy fields, herbicidal efficacy; type: in vivo; details: 1 kg ai/ha, wettable powder applied to paddy water, assessed 28 days after application; also: ranges in brackets are in %
Protocol: (§1) Test Method 1 (Soil Application in Paddy Fields) A suitable amount of water and chemical fertiliser were added to paddy field soil. A plastic pot (1/5000 a; 200 cm2) was filled with a portion of this soil followed by kneading to convert it to a state of a paddy field. A stock of paddy field rice plant (variety: Koshihikari) comprising a pair of two seedlings, which had been grown in advance in a greenhouse to the stage of two leaves, was transplanted into each pot. Furthermore, in each pot, there were sown predetermined amounts of seeds of Echinochloa orizicola, Monochoria vaginalis var. plantaginea, Lindernia procumbens and Scirpus jundoides var. hotarui, respectively, and water was added to a depth of 3 cm. On the next day a wettable powder formula was prepared by the method described in the Formulation Example 2, and diluted with a suitable amount of water to give a concentration of active ingredient of 1 kg per ha. The diluted formula was applied by dropping with a pipette. After 28 days from the application with the chemicals, herbicidal effects on each weeds and phytotoxicity on paddy field rice plants were assessed according to the following criteria of Table 3. [table]

Echinochloa oryzicola = test: as above; type: in vivo; details: 1 kg ai/ha, wettable powder applied to paddy water, assessed 28 days after application; also: ranges in brackets are in %
Protocol: as §1

Lindemia procunbens = test: as above; type: in vivo; details: 1 kg ai/ha, wettable powder applied to paddy water, assessed 28 days after application; also: ranges in brackets are in %
Protocol: as §1

Monochoria vaginalis = test: as above; type: in vivo; details: 1 kg ai/ha, wettable powder applied to paddy water, assessed 28 days after application; also: ranges in brackets are in %
Protocol: as §1

Soya, Maize, Rice, Wheat = test: Test Method 2: crop damage / selectivity, glass house pot test; type: in vivo, crop species; details: at levels of applications toxic to the weeds
Protocol: TEST METHOD 2 a) General Appropriate quantities of the compounds used to treat the plants were dissolved in acetone to give solutions equivalent to application rates of up to 250 g test compound per hectare (g/ha). These solutions were applied from an automatic laboratory herbicide sprayer delivering the equivalent of 720 liters of spray fluid per hectare. b) Weed control: Pre-emergence The seeds were sown in 70 mm square, 75 mm deep plastic pots in non-sterile soil, 3 species per pot. The quantities of seed per pot were as follows: [table] The compounds of the invention were applied to the soil surface, containing the seeds, as described in (a). Pots containing the species represented were allocated to each treatment, with unsprayed controls and controls sprayed with acetone alone. After treatment the pots were placed on capillary matting kept in a glass house, and watered overhead. Visual assessment of crop damage was made 17 days after spraying. The results were expressed as the percentage reduction in growth or damage to the crop or weeds, in comparison with the plants in the control pots.

Oryza sativa = test: Test Method 1: soil application in paddy fields, phytotoxicity on transplanted paddy field rice plants; type: in vivo, Oryza sativa (variety: Koshihikari); details: 1 kg ai/ha, transplanted rice at two-leaf stage, assessed 28 days after application; also: ranges in brackets are in %
Protocol: as §1

Row | Compound | Herbicidal efficacy (Point) SCPJU (Scirpus juncoides) | Herbicidal efficacy (Point) ECHOR (Echinochloa oryzicola) | Herbicidal efficacy (Point) LIDPY (Lindemia procunbens) | Herbicidal efficacy (Point) MOOVA (Monochoria vaginalis) | crop selectivity (Soya, Maize, Rice, Wheat) | Phytotoxicity ORYSA (Oryza sativa) | Herbicidal efficacy (Point) ECHOR (Echinochloa oryzicola; listed as 5.146 Z isomer) | Herbicidal efficacy (Point) LIDPY (Lindemia procunbens; listed as 5.146 Z isomer) | Phytotoxicity ORYSA (Oryza sativa; listed as 5.146 Z isomer) | Herbicidal efficacy (Point) ECHOR (Echinochloa oryzicola; listed as 5.146 E isomer) | Herbicidal efficacy (Point) LIDPY (Lindemia procunbens; listed as 5.146 E isomer) | Phytotoxicity ORYSA (Oryza sativa; listed as 5.146 E isomer)
1 | COC=C(Oc1ccc(Cl)cc1CO)C(=O)OC [Compound 1.313, Methyl 2-(2-Hydroxymethyl-4-chlorophenoxy)-3-methoxyacrylate] | 10 (90-100) | 10 (90-100) | 10 (90-100) | 10 (90-100) | selective in at least one crop species | 3 (20-30) | – | – | – | – | – | –
2 | COC=C(Oc1ccc(Cl)cc1CON=C(C)OCc1ccccc1)C(=O)OC [Compound 4.107] | 9 (80-90) | 10 (90-100) | 5 (40-50) | 10 (90-100) | selective in at least one crop species | 1 (0-10) | – | – | – | – | – | –
3 | COC=C(Oc1ccccc1CON=C(C)OCc1ccccc1)C(=O)OC [Compound 4.99] | 5 (40-50) | 9 (80-90) | 8 (70-80) | 10 (90-100) | – | 3 (20-30) | – | – | – | – | – | –
4 | COC=C(Oc1ccccc1COc1ccccc1C)C(=O)OC [Compound 2.6, Methyl 2-[2-(2-Methylphenoxy)methylphenoxy]-3-methoxyacrylate] | 7 (60-70) | 10 (90-100) | 8 (70-80) | 10 (90-100) | – | 3 (20-30) | – | – | – | – | – | –
5 | COC=C(Oc1ccc(Cl)cc1CON=C(C)C)C(=O)OC [Compound 4.61] | 9 (80-90) | 10 (90-100) | 10 (90-100) | 9 (80-90) | – | 1 (0-10) | – | – | – | – | – | –
6 | CCC(=NOCc1ccccc1)OCc1ccccc1OC(=COC)C(=O)OC [Compound 5.146 Z isomer, Methyl 2-{2-[(1-Benzyloxyiminopropyl)oxymethyl]phenoxy}-3-methoxyacrylate] | 3 (20-30) | – | – | 10 (90-100) | – | – | 10 (90-100) | 9 (80-90) | 3 (20-30) | – | – | –
7 | COC=C(Oc1ccc(Cl)cc1COC(C)=O)C(=O)OC [Compound 2.619, Methyl 2-(2-Acetyloxymethyl-4-chlorophenoxy)-3-methoxyacrylate] | 9 (80-90) | 10 (90-100) | 10 (90-100) | 10 (90-100) | selective in at least one crop species | 3 (20-30) | – | – | – | – | – | –
8 | COC=C(Oc1ccc(Cl)cc1CON=C(C)c1ccc(Cl)cc1)C(=O)OC [Compound 4.71] | 9 (80-90) | 10 (90-100) | 9 (80-90) | 10 (90-100) | selective in at least one crop species | 3 (20-30) | – | – | – | – | – | –
9 | COC=C(Oc1ccc(Cl)cc1COc1ccccc1C)C(=O)O [Compound 2.135, 2-[4-Chloro-2-(2-methylphenoxymethyl)]phenoxy-3-methoxyacrylic Acid] | 4 (30-40) | 4 (30-40) | 0 (0) | 9 (80-90) | – | 0 (0) | – | – | – | – | – | –
10 | CCC(=NOCc1ccccc1)OCc1cc(Cl)ccc1OC(=COC)C(=O)OC [Compound 5.541 E isomer] | 9 (80-90) | 10 (90-100) | 10 (90-100) | 10 (90-100) | selective in at least one crop species | 1 (0-10) | – | – | – | – | – | –
11 | COC=C(Oc1ccc(Cl)cc1COc1ccccc1C)C(=O)OC [Compound 2.129] | 8 (70-80) | 10 (90-100) | 9 (80-90) | 10 (90-100) | selective in at least one crop species | 2 (10-20) | – | – | – | – | – | –
12 | COC=C(Oc1ccc(Cl)cc1CBr)C(=O)OC [Compound 1.73] | 9 (80-90) | 10 (90-100) | 7 (60-70) | 10 (90-100) | selective in at least one crop species | 2 (10-20) | – | – | – | – | – | –
13 | CCC(=NOCc1ccccc1)OCc1ccccc1OC(=COC)C(=O)OC [Compound 5.146 E isomer, Methyl 2-{2-[(1-Benzyloxyiminopropyl)oxymethyl]phenoxy}-3-methoxyacrylate] | – | – | – | – | – | – | – | – | – | 9 (80-90) | 8 (70-80) | 2 (10-20)
14 | COC=C(Oc1ccccc1CON=C(C)c1ccc(Cl)cc1)C(=O)OC [Compound 4.68] | 6 (50-60) | 10 (90-100) | 8 (70-80) | 10 (90-100) | – | 3 (20-30) | – | – | – | – | – | –
